Residue numbers refer to the chain shown, from its start. Where “and” joins values, the source holds several entries; their conditions need not be identical. Identical values can stand only once.
What was measured:
SGLT1 and SGLT2 = conditions: cited from earlier work; for subtype specificity of inhibition (SGLT1 vs SGLT2): in words
[1] = target: T1, wild-type hSGLT2 (membrane fraction of hSGLT2 and MAP17 expressing cells) (Homo sapiens, UniProt P31639); experiment: SGLT2 inhibitor-binding assay via affinity selection–mass spectrometry, crude membrane, WT
T1 construct: expressed in transfected cells; host or cells: Expi293 cells, crude membrane fraction
T1 sequence (P31639 1-672): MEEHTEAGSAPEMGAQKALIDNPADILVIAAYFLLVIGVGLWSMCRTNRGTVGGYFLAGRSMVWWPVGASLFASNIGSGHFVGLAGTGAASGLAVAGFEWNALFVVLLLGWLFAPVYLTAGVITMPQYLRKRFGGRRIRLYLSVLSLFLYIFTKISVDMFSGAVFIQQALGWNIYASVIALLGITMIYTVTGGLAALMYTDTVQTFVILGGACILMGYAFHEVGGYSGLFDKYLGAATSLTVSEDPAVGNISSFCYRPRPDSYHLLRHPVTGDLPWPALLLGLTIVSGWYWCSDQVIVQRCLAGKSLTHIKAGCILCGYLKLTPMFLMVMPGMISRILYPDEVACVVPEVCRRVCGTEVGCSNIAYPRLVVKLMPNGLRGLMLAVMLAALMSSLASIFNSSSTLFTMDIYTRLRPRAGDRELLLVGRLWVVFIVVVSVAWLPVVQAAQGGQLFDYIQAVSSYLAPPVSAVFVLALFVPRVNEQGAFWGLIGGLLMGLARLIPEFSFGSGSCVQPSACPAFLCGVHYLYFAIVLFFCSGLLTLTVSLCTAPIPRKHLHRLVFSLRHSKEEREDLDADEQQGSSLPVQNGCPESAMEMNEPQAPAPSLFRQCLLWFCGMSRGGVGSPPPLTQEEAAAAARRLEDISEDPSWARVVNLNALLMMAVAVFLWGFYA
T1 sequence (Q13113 1-114 partner): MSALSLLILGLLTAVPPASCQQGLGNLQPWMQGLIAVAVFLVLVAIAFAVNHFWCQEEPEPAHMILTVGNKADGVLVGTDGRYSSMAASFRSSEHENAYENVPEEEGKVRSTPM
Protocol: (§1) To examine the inhibition of binding to the crude membrane, mammalian Expi293 cells were co-transfected with the hMAP17 and hSGLT2 plasmids, as described. The cells were collected and disrupted by sonication in a hypotonic buffer (50 mM HEPES–NaOH (pH 7.5), 10 mM KCl and protease inhibitor cocktail) or Na^+-free hypotonic buffer (50 mM Tris–HCl (pH 7.5), 10 mM KCl and protease inhibitor cocktail). The cell debris were removed by centrifugation (2,000g, 5 min, 4 °C). The membrane fraction was collected by ultracentrifugation (112,000g, 30 min, 4 °C) and stored at −80 °C before use. The crude membrane (250 μg per sample) was incubated with SGLT2 inhibitor in an assay buffer (100 mM NaCl and 10 mM HEPES/Tris, pH 7.4) or Na^+-free assay buffer (100 mM choline chloride and 10 mM HEPES/Tris, pH 7.4) at room temperature for 2 h. Reactions were terminated by filtration through a GF/C filter plate (Corning) presoaked in assay buffer containing 0.1% bovine serum albumin. The sample in the filter plate was washed three times with the assay buffer and eluted with acetonitrile: water (80:20, v/v). The extract solution from the filter plate was diluted with water containing candesartan as an internal standard, and the SGLT2 inhibitor concentration was quantified via LC–MS/MS.
(§2) Nonspecific binding was measured using the crude membrane of nontransfected Expi293 cells. Specific binding was calculated by subtracting nonspecific binding from the binding of hSGLT2-expressing cells. Specific binding was normalized to hSGLT2 protein expression levels, measured via FSEC. The equilibrium dissociation constant (Kd) and maximum number of binding sites (Bmax) were calculated via nonlinear regression in GraphPad Prism 8.4.3. The specific binding of the hSGLT2 mutants was normalized to the Bmax of WT hSGLT2.
(§3) The concentrations of the extract solution from the filter plate and of the cell lysate were quantified using a tandem mass spectrometry QTRAP6500 System (SCIEX) coupled with an ACQUITY UPLC system (Waters) using the internal standard method. Mobile phases A and B used 10 mM of ammonium bicarbonate and acetonitrile, respectively.

[2] = system: nontransfected Expi293 cells (Mock); experiment: Nonspecific binding to crude membrane of nontransfected cells (Mock); set-up: species or system human; conditions: Mock
Protocol: as §1, §2, §3

hSGLT2 S74A = target: T2, hSGLT2 S74A (Homo sapiens, UniProt P31639, S74A); type: binding; conditions: S74A mutant
T2 construct: expressed in transfected cells; host or cells: Expi293 cells, crude membrane fraction
T2 sequence (P31639 whole entry S74A, one chain of several): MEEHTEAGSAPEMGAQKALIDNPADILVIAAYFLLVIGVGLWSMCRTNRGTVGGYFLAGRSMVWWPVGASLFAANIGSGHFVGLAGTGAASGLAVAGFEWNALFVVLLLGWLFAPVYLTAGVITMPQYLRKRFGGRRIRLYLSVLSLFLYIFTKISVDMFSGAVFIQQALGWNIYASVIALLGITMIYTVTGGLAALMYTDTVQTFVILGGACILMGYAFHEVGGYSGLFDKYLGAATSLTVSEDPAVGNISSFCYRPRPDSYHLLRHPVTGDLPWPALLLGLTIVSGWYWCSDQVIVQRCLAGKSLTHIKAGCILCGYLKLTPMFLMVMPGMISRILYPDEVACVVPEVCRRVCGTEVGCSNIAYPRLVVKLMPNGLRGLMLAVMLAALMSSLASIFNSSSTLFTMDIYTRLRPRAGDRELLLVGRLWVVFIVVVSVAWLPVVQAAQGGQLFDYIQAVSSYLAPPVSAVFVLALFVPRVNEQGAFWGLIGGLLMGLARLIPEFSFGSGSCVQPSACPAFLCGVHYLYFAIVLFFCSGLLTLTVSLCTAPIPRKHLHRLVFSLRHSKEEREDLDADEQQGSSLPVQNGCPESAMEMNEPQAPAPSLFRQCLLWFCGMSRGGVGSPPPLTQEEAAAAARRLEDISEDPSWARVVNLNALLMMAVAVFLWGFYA
Source text: (§4) hSGLT2 complementary DNA and human MAP17 cDNA were synthesized and codon-optimized for expression in human cell lines. Both cDNAs were cloned into the pcDNA3.4 vector. The hSGLT2 sequence was fused with an N-terminal signal sequence from human trypsinogen 1, a His10 tag, and sfGFP, followed by a human rhinovirus 3C protease (HRV3C protease) recognition site. Point mutations were introduced into this construct using site-directed mutagenesis. These plasmids were utilized for all experimental procedures conducted in this study.
To examine the inhibition of binding to the crude membrane, mammalian Expi293 cells were co-transfected with the hMAP17 and hSGLT2 plasmids, as described. The cells were collected and disrupted by sonication in a hypotonic buffer (50 mM HEPES–NaOH (pH 7.5), 10 mM KCl and protease inhibitor cocktail) or Na^+-free hypotonic buffer (50 mM Tris–HCl (pH 7.5), 10 mM KCl and protease inhibitor cocktail). The cell debris were removed by centrifugation (2,000g, 5 min, 4 °C). The membrane fraction was collected by ultracentrifugation (112,000g, 30 min, 4 °C) and stored at −80 °C before use. […] The extract solution from the filter plate was diluted with water containing candesartan as an internal standard, and the SGLT2 inhibitor concentration was quantified via LC–MS/MS.
(§5) Nonspecific binding was measured using the crude membrane of nontransfected Expi293 cells. Specific binding was calculated by subtracting nonspecific binding from the binding of hSGLT2-expressing cells. Specific binding was normalized to hSGLT2 protein expression levels, measured via FSEC. The equilibrium dissociation constant (Kd) and maximum number of binding sites (Bmax) were calculated via nonlinear regression in GraphPad Prism 8.4.3. […]
The concentrations of the extract solution from the filter plate and of the cell lysate were quantified using a tandem mass spectrometry QTRAP6500 System (SCIEX) coupled with an ACQUITY UPLC system (Waters) using the internal standard method. […]

hSGLT2 D201A = target: T3, hSGLT2 D201A (Homo sapiens, UniProt P31639, D201A); experiment: SGLT2 inhibitor-binding assay (AS-MS), crude membrane, D201A mutant; set-up: expressed in transfected cells; host or cells: Expi293 cells, crude membrane fraction; conditions: D201A mutant
T3 sequence (P31639 1-672 D201A): T1 sequence (P31639 1-672) with D201A
T3 sequence (Q13113 1-114 partner): T1 sequence (Q13113 1-114 partner)
Source text: as §4
To examine the inhibition of binding to the crude membrane, mammalian Expi293 cells were co-transfected with the hMAP17 and hSGLT2 plasmids, as described. […] The extract solution from the filter plate was diluted with water containing candesartan as an internal standard, and the SGLT2 inhibitor concentration was quantified via LC–MS/MS.
as §5

SGLT2 = system: SGLT2; set-up: method as in Hummel et al., Am. J. Physiol., Cell Physiol., 2011; conditions: authors' rebuttal in peer review file; ref Hummel et al., Am. J. Physiol., Cell Physiol., 2011; cited from earlier work
SGLT1 T395A = system: SGLT1 T395A; set-up: method as in PMID 30532032; conditions: replacement of T395 with Ala at the Na3 site; cited from earlier work
hSGLT2 V95I = system: hSGLT2 V95I; set-up: method as in PMID 34880493; conditions: cited from earlier work

CS[C@H]1O[C@@H](c2ccc(C)c(Cc3ccc(CCCC(=O)NC(C)(C)C(=O)NCCN(C)C)cc3)c2)[C@H](O)[C@@H](O)[C@@H]1O [LX-2761]
subtype specificity of inhibition (SGLT1 vs SGLT2) (SGLT1 and SGLT2): dual inhibitors

OC[C@H]1O[C@@H](n2cc(Cc3ccc(C4CC4)cc3)c3c(F)cccc32)[C@H](O)[C@@H](O)[C@@H]1O [TA-1887]
Binding (% of hSGLT2) ([1]; 10 nM TA-1887): 96.8051 % of hSGLT2 and 101.597 % of hSGLT2
Bmax ([1]; Na(+), mean ± SEM n=3): 4.67 ± 0.49 pmol/mg-protein
Kd ([1]; Na(+), mean ± SEM n=3): 115 ± 28 nM
Bmax ([1]; Na(-), mean ± SEM n=3): 0.705 ± 0.155 pmol/mg-protein
Kd ([1]; Na(-), mean ± SEM n=3): 86.4 ± 50 nM
Bmax in the absence versus the presence of Na+ (in words) ([1]; absence vs presence of Na+): partially lower
Binding (% of hSGLT2) ([2]; 10 nM TA-1887): 13.0351 % of hSGLT2 and 13.9457 % of hSGLT2 and 14.6645 % of hSGLT2
subtype specificity of inhibition (SGLT1 vs SGLT2) (SGLT1 and SGLT2): SGLT2-specific inhibition

CCOc1ccc(Cc2cc([C@@H]3O[C@H](SC)[C@@H](O)[C@H](O)[C@H]3O)ccc2Cl)cc1 [Sotagliflozin]
Binding (% of hSGLT2) ([1]; 50 nM sotagliflozin): 96.1006 % of hSGLT2 and 97.9874 % of hSGLT2 and 105.912 % of hSGLT2
Binding (% of hSGLT2) ([2]; 50 nM sotagliflozin): 19.1195 % of hSGLT2 and 17.8616 % of hSGLT2 and 17.9874 % of hSGLT2
subtype specificity of inhibition (SGLT1 vs SGLT2) (SGLT1 and SGLT2): dual inhibitors

O=C(CCc1ccc(O)cc1)c1c(O)cc(O)cc1O [Phloretin]
phloretin binding (in words) ([1]; WT): binds as effectively as phlorizin
Bmax ([1]; phloretin, WT, mean ± SEM n=4): 51.7 ± 3.46 pmol/mg-protein
Kd ([1]; phloretin, WT, mean ± SEM n=4): 12000 ± 1900 nM
phloretin binding (in words) (hSGLT2 S74A): not
phloretin binding (in words) (hSGLT2 D201A): not

CCOc1ccc(Cc2cc([C@@H]3O[C@H](CO)[C@@H](O)[C@H](O)[C@H]3O)ccc2Cl)cc1 [Dapagliflozin]
Binding (% of hSGLT2) ([1]; 10 nM dapagliflozin): 83.4507 % of hSGLT2 and 95.0704 % of hSGLT2 and 121.479 % of hSGLT2
Binding (% of hSGLT2) ([2]; 10 nM dapagliflozin): 2.53 % of hSGLT2 and 3.518 % of hSGLT2 and 3.481 % of hSGLT2
fold difference in inhibition between SGLT1 and SGLT2 (SGLT1 and SGLT2): more than 1,000 fold
subtype specificity of inhibition (SGLT1 vs SGLT2) (SGLT1 and SGLT2): SGLT2-specific inhibition

OC[C@H]1OC(O)[C@H](O)[C@@H](O)[C@@H]1O (stereo partly shown) [glucose]
Michaelis constant (SGLT2): 5 mM
reduction in glucose affinity (SGLT1 T395A): more than 30 fold

OC[C@H]1O[C@@H](c2ccc(Cl)c(Cc3ccc(O[C@H]4CCOC4)cc3)c2)[C@H](O)[C@@H](O)[C@@H]1O [empagliflozin]
subtype specificity of inhibition (SGLT1 vs SGLT2) (SGLT1 and SGLT2): SGLT2-specific inhibition
effect of V95I on inhibitory activity (hSGLT2 V95I): reduces the inhibitory activity

— paper PMC10803289, “Transport and inhibition mechanism of the human SGLT2–MAP17 glucose transporter” (Nature Structural & Molecular Biology, 2023)
